Publication PMC6599250, “Functional diversity of inhibitors tackling the differentiation blockage of MLL-rearranged leukemia” (Journal of Hematology & Oncology, 2019)
Read-outs that look alike come from different tables or passages of the source.

Assays:
MV4-11 (MLL-AF4) cells = experiment: Cell proliferation (alamarBlue) MV4-11; assay type: cell-based; conditions: Homo sapiens, MV4-11, MV4-11 (MLL-AF4), read-out: IC50 proliferation
Description: (§1) Cells were seeded in the optimal growth medium at 4000–5000 cells/well in a 96 MTP and cultured 18–24 h before inhibitor treatment.

SEM (MLL-AF4) cells = experiment: Cell proliferation (alamarBlue) SEM; assay type: cell-based; conditions: SEM (MLL-AF4), read-out: IC50 proliferation
Description: as §1

[1] = test system: OCI-AML-2 (MLL-AF9) cells; experiment: Cell proliferation (alamarBlue) OCI-AML-2; assay type: cell-based; conditions: Homo sapiens, OCI-AML2, OCI-AML-2 (MLL-AF9), read-out: IC50 proliferation
Description: as §1

RS4;11 (MLL-AF4) cells = experiment: Cell proliferation (alamarBlue) RS4;11; assay type: cell-based; conditions: Homo sapiens, RS4-11, RS4;11 (MLL-AF4), read-out: IC50 proliferation
Description: as §1

KOPN-8 (MLL-ENL) cells = experiment: Cell proliferation (alamarBlue) KOPN-8; assay type: cell-based; conditions: Homo sapiens, KOPN-8, KOPN-8 (MLL-ENL), read-out: IC50 proliferation
Description: as §1

[2] = test system: MLL-fused cell lines (MV4-11, MOLM-13); experiment: Cell proliferation, MLL-fused cell lines; assay type: cell-based; conditions: 4 days of treatment (Fig. 1a), DMSO = 100%
Description: (§2) Cells were seeded in the optimal growth medium at 4000–5000 cells/well in a 96 MTP and cultured 18–24 h before inhibitor treatment. Upon treatment with the indicated inhibitor, cells were cultured for 24 h, 96 h, and 168 h and effects on proliferation were determined using alamarBlue Cell Viability Reagent (Thermo Fisher Scientific, Waltham, MA, USA).

Jurkat (MLL-WT) cells = experiment: Cell proliferation (alamarBlue) Jurkat; assay type: cell-based; conditions: Homo sapiens, Jurkat (MLL-WT)
Description: as §1

[3] = test system: selected MLL-fused models; experiment: Cell proliferation, AML/ALL panel; assay type: cell-based; conditions: specifically in selected MLL-fused models (Fig. 2a); read-out: proliferation IC50 (significant effects)
Description: as §1

OCI-AML-5 (MLL-WT) cells = experiment: Cell proliferation (alamarBlue) OCI-AML-5; assay type: cell-based; conditions: Homo sapiens, OCI-AML-5, OCI-AML-5 (MLL-WT), read-out: IC50 proliferation
Description: as §1

[4] = test system: MV4-11, MOLM-13 and HL-60 cells; experiment: Cell cycle analysis (PI, flow cytometry); assay type: cell-based; conditions: 4 days of treatment (Figure S2)
Description: Cells were washed with PBS and fixed overnight at − 20 °C with 70% ethanol. Fixed cells were stained with PI solution (Sigma-Aldrich St. Louis, MO, USA) solution containing RNase A (Qiagen, Hilden, Germany). Fluorescence was measured with FACS Canto II (BD Biosciences, Heidelberg, Germany) flow cytometer and data was analyzed with FACSDiva software.

MOLM-14 (MLL-AF9) cells = experiment: Cell proliferation (alamarBlue) MOLM-14; assay type: cell-based; conditions: Homo sapiens, MOLM-14, MOLM-14 (MLL-AF9), read-out: IC50 proliferation
Description: as §1

HL-60 cells = experiment: CD11b protein expression by flow cytometry, HL-60; assay type: cell-based; conditions: non-fused HL-60 cell line, 4 and 7 days of treatment
Description: (§3) Four thousand cells per well were seeded 24 h before they were treated with the indicated inhibitor in a 96 MTP. After 4 or 7 days of treatment, cells were washed with PBS and stained with CD11b - APC (BioLegend, San Diego, California, USA) and DAPI (Thermo Fisher Scientific, Waltham, Massachusetts, USA) or AnnexinV – FITC (BioLegend, San Diego, California, USA) and PI solution (Sigma-Aldrich St. Louis, Missouri, USA) using the FACS Canto II (BD Biosciences, Heidelberg, Germany) and data was analyzed with FACSDiva software.

[5] = test system: MLL-fused cell lines (MV4-11, MOLM-13); experiment: CD11b protein expression by flow cytometry, MLL-fused lines; assay type: cell-based; conditions: 4 and 7 days of treatment
Description: as §3

HL-60 (MLL-WT) cells = experiment: Cell proliferation (alamarBlue) HL-60; assay type: cell-based; conditions: for IC50: Homo sapiens, HL-60 (MLL-WT), read-out: IC50 proliferation
Description: as §1

NOMO-1 (MLL-AF9) cells = experiment: Cell proliferation (alamarBlue) NOMO-1; assay type: cell-based; conditions: Homo sapiens, NOMO-1, NOMO-1 (MLL-AF9), read-out: IC50 proliferation
Description: as §1

OCI-AML-3 (MLL-WT) cells = experiment: Cell proliferation (alamarBlue) OCI-AML-3; assay type: cell-based; conditions: Homo sapiens, OCI-AML-3, OCI-AML-3 (MLL-WT), read-out: IC50 proliferation
Description: as §1

EOL-1 (MLL-TD) cells = experiment: Cell proliferation (alamarBlue) EOL-1; assay type: cell-based; conditions: Homo sapiens, EOL1, EOL-1 (MLL-TD), read-out: IC50 proliferation
Description: as §1

MOLM-13 (MLL-AF9) cells = experiment: Cell proliferation (alamarBlue) MOLM-13; assay type: cell-based; conditions: Homo sapiens, MOLM-13, MOLM-13 (MLL-AF9), read-out: IC50 proliferation
Description: as §1

ML-2 (MLL-AF6) cells = experiment: Cell proliferation (alamarBlue) ML-2; assay type: cell-based; conditions: ML-2 (MLL-AF6), read-out: IC50 proliferation
Description: as §1

AML patients = conditions: cited from earlier work
[6] = test system: MV4-11, MOLM-13 and HL-60 cells; experiment: Cell proliferation, all three tested AML cell lines; assay type: cell-based; conditions: 96 h; all tested cell lines (MV4-11, MOLM-13, HL-60), 4 days of treatment (Fig. 1a); read-out: anti-proliferation IC50s
Description: as §2

[7] = D1, read-out: IC50 proliferation
[8] = D4, read-out: IC50 proliferation
[9] = D7, read-out: IC50 proliferation
[10] = 168 h, 7 days of treatment (D7)

SMILES: CC(C)N(C[C@H]1O[C@@H](n2cnc3c(N)ncnc32)[C@H](O)[C@@H]1O)[C@H]1C[C@@H](CCc2nc3cc(C(C)(C)C)ccc3[nH]2)C1 [EPZ-5676]
- IC50 (MV4-11 (MLL-AF4) cells; D1): > 10 µM
- IC50 (MV4-11 (MLL-AF4) cells; D4): 0.25 µM
- IC50 (MV4-11 (MLL-AF4) cells; D7): 0.28 µM
- IC50 (SEM (MLL-AF4) cells; D1): > 10 µM
- IC50 (SEM (MLL-AF4) cells; D4): > 10 µM
- IC50 (SEM (MLL-AF4) cells; D7): > 10 µM
- IC50 ([1]; D1): > 10 µM
- IC50 ([1]; D4): > 10 µM
- IC50 ([1]; D7): > 10 µM
- IC50 (RS4;11 (MLL-AF4) cells; D1): > 10 µM
- IC50 (RS4;11 (MLL-AF4) cells; D4): > 10 µM
- IC50 (RS4;11 (MLL-AF4) cells; D7): > 10 µM
- IC50 (KOPN-8 (MLL-ENL) cells; D1): > 10 µM
- IC50 (KOPN-8 (MLL-ENL) cells; D4): > 10 µM
- IC50 (KOPN-8 (MLL-ENL) cells; D7): > 10 µM
- proliferation inhibited to [2]: 40–50%
- IC50 (Jurkat (MLL-WT) cells; [7]): > 10 µM
- IC50 (Jurkat (MLL-WT) cells; [8]): > 10 µM
- IC50 (Jurkat (MLL-WT) cells; [9]): > 10 µM
- IC50 [3]: < 1 µM
- IC50 (OCI-AML-5 (MLL-WT) cells; D1): > 10 µM
- IC50 (OCI-AML-5 (MLL-WT) cells; D4): > 10 µM
- IC50 (OCI-AML-5 (MLL-WT) cells; D7): > 10 µM
- cell cycle effect [4]: decrease of cells in S and G2/M phase with increasing concentrations
- IC50 (MOLM-14 (MLL-AF9) cells; D1): > 10 µM
- IC50 (MOLM-14 (MLL-AF9) cells; D4): 0.14 µM
- IC50 (MOLM-14 (MLL-AF9) cells; D7): 0.12 µM
- CD11b level (HL-60 cells): did not increase CD11b level
- CD11b protein level [5]: increased CD11b protein level in a dose and time-dependent manner
- anti-proliferation effect in non-fused HL-60 (HL-60 (MLL-WT) cells; HL-60, 4 days of treatment (Fig. 1a)): no significant effects
- IC50 (HL-60 (MLL-WT) cells; 24 h, 1 day of treatment (D1)): > 10 µM
- IC50 (HL-60 (MLL-WT) cells; 96 h, 4 days of treatment (D4)): > 10 µM
- IC50 (HL-60 (MLL-WT) cells; [10]): > 10 µM
- IC50 (NOMO-1 (MLL-AF9) cells; D1): > 10 µM
- IC50 (NOMO-1 (MLL-AF9) cells; D4): > 10 µM
- IC50 (NOMO-1 (MLL-AF9) cells; D7): 0.15 µM
- IC50 (OCI-AML-3 (MLL-WT) cells; D1): > 10 µM
- IC50 (OCI-AML-3 (MLL-WT) cells; D4): > 10 µM
- IC50 (OCI-AML-3 (MLL-WT) cells; D7): > 10 µM
- IC50 (EOL-1 (MLL-TD) cells; D1): > 10 µM
- IC50 (EOL-1 (MLL-TD) cells; D4): > 10 µM
- IC50 (EOL-1 (MLL-TD) cells; D7): 0.12 µM
- IC50 (MOLM-13 (MLL-AF9) cells; D1): > 10 µM
- IC50 (MOLM-13 (MLL-AF9) cells; D4): > 10 µM
- IC50 (MOLM-13 (MLL-AF9) cells; D7): 6.57 µM
- IC50 (ML-2 (MLL-AF6) cells; D1): > 10 µM
- IC50 (ML-2 (MLL-AF6) cells; D4): > 10 µM
- IC50 (ML-2 (MLL-AF6) cells; D7): > 10 µM

SMILES: Cc1sc2c(c1C)C(c1ccc(Cl)cc1)=N[C@@H](CC(=O)Nc1ccc(O)cc1)c1nnc(C)n1-2 [OTX015]
- IC50 (MV4-11 (MLL-AF4) cells; D1): > 10 µM
- IC50 (MV4-11 (MLL-AF4) cells; D4): 0.14 µM
- IC50 (MV4-11 (MLL-AF4) cells; D7): 0.18 µM
- IC50 (SEM (MLL-AF4) cells; D1): > 10 µM
- IC50 (SEM (MLL-AF4) cells; D4): 0.07 µM
- IC50 (SEM (MLL-AF4) cells; D7): 0.08 µM
- IC50 ([1]; D1): > 10 µM
- IC50 ([1]; D7): 0.08 µM
- clinical activity in AML patients (AML patients; AML patients harboring diverse driving mutations): partial blast clearance and recovery of platelets
- dose-limiting effect in patients (AML patients; patients with incomplete bone marrow failure): severe thrombocytopenia as dose-limiting effect
- IC50 (RS4;11 (MLL-AF4) cells; D1): > 10 µM
- IC50 (RS4;11 (MLL-AF4) cells; D4): 0.17 µM
- IC50 (RS4;11 (MLL-AF4) cells; D7): 0.15 µM
- IC50 (KOPN-8 (MLL-ENL) cells; D1): > 10 µM
- IC50 (KOPN-8 (MLL-ENL) cells; D4): 0.3 µM
- IC50 (KOPN-8 (MLL-ENL) cells; D7): 0.32 µM
- IC50 [6]: 0.03 to 0.14 µM
- IC50 (Jurkat (MLL-WT) cells; [7]): > 10 µM
- IC50 (Jurkat (MLL-WT) cells; [8]): 0.1 µM
- IC50 (Jurkat (MLL-WT) cells; [9]): 0.17 µM
- IC50 (OCI-AML-5 (MLL-WT) cells; D1): > 10 µM
- IC50 (OCI-AML-5 (MLL-WT) cells; D4): 0.07 µM
- IC50 (OCI-AML-5 (MLL-WT) cells; D7): 0.08 µM
- cell cycle effect [4]: decrease of cells in S and G2/M phase with increasing concentrations
- IC50 (MOLM-14 (MLL-AF9) cells; D1): > 10 µM
- IC50 (MOLM-14 (MLL-AF9) cells; D4): 0.04 µM
- IC50 (MOLM-14 (MLL-AF9) cells; D7): 0.06 µM
- CD11b level (HL-60 cells): treatment did
- CD11b protein level [5]: increased CD11b protein level in a dose and time-dependent manner
- IC50 (HL-60 (MLL-WT) cells; 24 h, 1 day of treatment (D1)): > 10 µM
- IC50 (HL-60 (MLL-WT) cells; 96 h, 4 days of treatment (D4)): 0.07 µM
- IC50 (HL-60 (MLL-WT) cells; [10]): 0.27 µM
- IC50 (NOMO-1 (MLL-AF9) cells; D1): > 10 µM
- IC50 (NOMO-1 (MLL-AF9) cells; D4): 0.01 µM
- IC50 (NOMO-1 (MLL-AF9) cells; D7): 0.01 µM
- IC50 (OCI-AML-3 (MLL-WT) cells; D1): > 10 µM
- IC50 (OCI-AML-3 (MLL-WT) cells; D4): 0.04 µM
- IC50 (OCI-AML-3 (MLL-WT) cells; D7): 0.07 µM
- IC50 (EOL-1 (MLL-TD) cells; D1): > 10 µM
- IC50 (EOL-1 (MLL-TD) cells; D4): 0.03 µM
- IC50 (EOL-1 (MLL-TD) cells; D7): 0.04 µM
- IC50 (MOLM-13 (MLL-AF9) cells; D1): > 10 µM
- IC50 (MOLM-13 (MLL-AF9) cells; D4): 0.03 µM
- IC50 (MOLM-13 (MLL-AF9) cells; D7): 0.11 µM
- IC50 (ML-2 (MLL-AF6) cells; D1): > 10 µM
- IC50 (ML-2 (MLL-AF6) cells; D4): 0.39 µM
- IC50 (ML-2 (MLL-AF6) cells; D7): 0.18 µM
